Test results published in paper PMC7738871, “Covalent modification of Keap1 at Cys77 and Cys434 by pubescenoside a suppresses oxidative stress-induced NLRP3 inflammasome activation in myocardial ischemia-reperfusion injury” (Theranostics, 2021).

Assays:
[1] = tested on: T1, interaction of Keap1 and Cul3; test: Co-IP of Keap1 and Cul3 in 293T cells; assay type: cell-based, human
T1 construct: expressed in transfected cells; host or cells: 293T
Procedure: Alkylation of the BTB domain of Keap1 by covalent modifiers contributes to the disruption of the Keap1-Cul3 interactions, leading to Nrf2 activation. Next, we investigated the effect of PBA on the modulation of Nrf2 ubiquitination as Nrf2 stability is controlled by ubiquitin-mediated proteasomal degradation. First, 3X Flag-Keap1, Myc-Nrf2 and Ub plasmids were transfected into 293T cells and then, the cells were treated with 30 μM PBA for 20 h and 5 μM MG132 for another 4 h. Cell lysates were pulled down using anti-Myc beads, and immunopurified Nrf2 was examined for the occurrence of Ub by western blotting. […]
Figure 6 PBA suppresses Keap1-mediated ubiquitination of Nrf2 by disrupting the interaction between Cul3 and Keap1. […] The cell lysates were immunoprecipitated using anti-Myc beads, and the ubiquitination level was evaluated using the anti-Ub antibody. […] The cell lysates were immunoprecipitated with the anti-Flag antibody, and the level of Nrf2 was assessed using the anti-Nrf2 antibody. […] The cell lysates were immunoprecipitated with the anti-Flag antibody, and the level of Cul3 was measured using the anti-Cul3 antibody. #p < 0.05, ##p < 0.01, ###p < 0.001, the control vs DMSO; *p < 0.05,**p < 0.01, ***p < 0.001, PBA or tBHQ vs DMSO. […] Cell viability was measured by MTT assays. #p < 0.05, ###p < 0.001, the control vs OGD/R; **p < 0.01, ***p < 0.001, OGD/R+PBA vs OGD/R.

[2] = tested on: LAD-induced myocardial ischemia-reperfusion model in mice; test: LAD-induced myocardial ischemia-reperfusion model; assay type: in vivo, mouse
Procedure: The experimental procedures and protocols were approved by the Committee on Ethical USE of Animals of International Institute for Translational Chinese Medicine, Guangzhou University of Chinese Medicine (No. IITCM-20180115). Adult male C57BL/6 mice were purchased from the Laboratory Animal Center, Sun Yat-Sen University (Guangzhou, Guangdong, China), and Nrf2 knockout mice were obtained from Riken. Adult male C57BL/6 or Nrf2 knockout mice were treated with 30 mg/kg PBA or an equal volume of vehicle 15 min prior to reperfusion. Mice were divided into 6 groups: (1) Wild-type sham (n = 10): C57BL/6 mice received vehicle, as the sham group; (2) Wild-type AMI/R group (n = 10): C57BL/6 mice received vehicle (i.p.) 15 min before reperfusion; (3) Wild-type AMI/R plus PBA group (n = 10): C57BL/6 mice received 30 mg/kg PBA (i.p.) 15 min before reperfusion; (4) Nrf2 knockout sham (n = 8) : Nrf2 knockout mice received vehicle (i.p.), as in the sham group; (5) Nrf2 knockout AMI/R group (n = 8): Nrf2 knockout mice received vehicle (i.p.) 15 min before reperfusion; (6) Nrf2 knockout AMI/R plus PBA group (n = 8): Nrf2 knockout mice received 30 mg/kg PBA (i.p.) 15 min before reperfusion. PBA was dissolved in 0.9% NaCl buffer containing 2% EtOH. The vehicle was 0.9% NaCl buffer containing 2% EtOH.
The C57BL/6 mice or Nrf2 knockout mice underwent myocardial ischemia-reperfusion injury as described previously. In brief, mice were anaesthetized by i.p. injection of sodium pentobarbital at a dose of 50 mg/kg and ventilated under a pressure-control VentStar R415 ventilator (RWD Life Science Inc., Shenzhen, China). Following thoracotomy between the 3rd and 4th intercostal spaces, the mouse heart was exposed. The LAD was ligated with an 8-0 silk suture and the PE10 tube for 30 min. PBA and vehicle were i.p. injected 15 min prior to reperfusion. After 30 min of ischemia, the suture with PE10 tube was removed. At the end of 24 h of reperfusion, the LAD was relegated, and 1% Evans blue dye was injected to measure the area at risk (AAR). The hearts of the mice were collected, and frozen at -80 °C for 10 min and cut into 5 slices. The slices were incubated with 1% 2,3,5-triphenyltetrazolium chloride (TTC, Santa Cruz, USA) at 37 °C for 15 min and fixed with 4% paraformaldehyde overnight. The slices were captured and the areas of AAR and IA were quantified by using ImageJ software.
Hemodynamic measurements were performed using a PV-loop catheter (Transonic Systems Inc., Ithaca, NY, USA). Hemodynamic measurements were analysed using Ponemah 7700 modules software according to a standardized protocol. The maximum rate of rise of left ventricular pressure increase (+dp/dtmax) and the maximum rate of rise of left ventricular pressure decrease (-dp/dtmax) were calculated for all mice.
Echocardiography was performed on mice at the end of reperfusion. In brief, mice were re-anesthetized with isoflurane and subjected to the Vevo 2100 System (VisualSonics Inc., Toronto, Canada). M-mode was used to obtain LV dimensions in diastole and systole according to the standard procedures and calculations. Left ventricular end systolic diameter (LVESD), left ventricular end diastolic diameter (LVEDD), left ventricular end systolic volume (LVSV) and left ventricular end diastolic volume (LVDV) were measured. And the left ventricular ejection fraction (LVEF) and left ventricular fractional shortening (LVFS) values were calculated using Vevostrain software as parameters indicating cardiac function.

[3] = 30 mg/kg i.p., 24 hours after AMI/R

Which “disruption of Keap1 and Cul3 interaction in mutant cells” value ([1]; Cys77S and Cys434-Keap1 mutant cells) does the source give for C=C(COC(=O)C=Cc1ccc(O)c(O)c1)C(O)COC1OC(CO)C(O)C(O)C1O (stereo not shown) [PBA, pubescenoside A] here?
Its value is “blocked”.

What about the “interaction of Keap1 and Cul3 (Co-IP)” value ([1]; WT-Keap1 293T cells, 30 μM PBA 12 h) of the same molecule?
The value was “could disrupt”.

What about the “myofibrillar structure (H&E staining)” value ([2]; 30 mg/kg) of the same molecule?
The value was “preserved myofibrillar structure”.

What about the “recruitment of inflammatory cells (H&E staining)” value ([2]; 30 mg/kg) of the same molecule?
The value was “reduced the recruitment of inflammatory cells”.

What about the cardiac infarct size ([2]; 30 mg/kg i.p. 15 min before reperfusion, 30 min ischemia, 24 h reperfusion) of the same molecule?
The cardiac infarct size was “significantly reduce”.

And the “level of CK-MB” value ([2]; 30 mg/kg i.p., 30 min ischemia, 24 h reperfusion, blood, ELISA)?
Its value is “significantly reduce”.

What about the “+dp/dtmax” value [2, 3] of the same molecule?
Its value is “increasing”.

What about the “-dp/dtmax” value [2, 3] of the same molecule?
Its value is “increasing”.

And the LVEF [2, 3]?
Its LVEF is “increasing”.

What about the LVESD [2, 3] of the same molecule?
Its LVESD is “decreasing”.

And the LVFS [2, 3]?
Its LVFS is “increasing”.

And the LVSV [2, 3]?
Its LVSV is “decreasing”.

And the “NLRP3 inflammasome activation in heart tissue” value ([2]; AMI/R-injured mice, western blot)?
The value was “attenuated”.
